Test results: patent US11584744B2 (UNIVERSITY OF WASHINGTON, priority 2017, dated 2023)
Values after ≈ are worked out from the molar mass of the structure shown. Values joined by “and” are separate entries in the source; they are usually repeats but may differ in a detail not shown here. Identical values can stand only once. Like-named read-outs stand apart in the source and are kept apart here.

Columns and labels:
[1] = system: S. aureus MRSA (ATCC 43300); assay: MIC susceptibility testing; type: cell-based; details: Staphylococcus aureus; read-out: S. aureus MRSA (ATCC 43300) MIC
Procedure, shortened: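 CLSI broth microdilution with two-fold compound dilutions, in triplicate; cells added in medium at 1×10^6 CFUs/mL, DMSO ≤0.5%. Media: MHB for S. aureus, CA-MHB for E. coli and E. faecium, CA-MHB plus 3% laked horse blood for S. pyogenes (5% CO2).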

S. aureus (ATCC 29213) [2] = assay: Macromolecular synthesis assays (radiolabeled precursor incorporation); type: cell-based, Staphylococcus aureus; details: 30 minute incubations
Method: Macromolecular synthesis assays: Methods for measuring uptake of radiolabeled precursors by S. aureus (ATCC strain 29213) were adapted from previous publications. For these assays, bacteria were grown in defined media (DM): RPMI-1640 pH 7.3±0.1 without phenol red or L-glutamine (Lonza, Basel, Switzerland) supplemented with 4 mM L-glutamine (Lonza, Basel, Switzerland), 10 mM HEPES (Lonza, Basel, Switzerland), and 1% (w/v) D-glucose (Sigma Aldrich, St. Louis, Mo.). Fresh overnight cultures grown in DM at 37° C. were diluted 1:50 in pre-warmed DM and grown at 37° C. with shaking (150 rpm) until reaching an OD600 of 0.420 correlating to ˜1*10^9 CFUs/mL in mid-log phase. Each compound was assayed in quadruplicate with an 11-point three-fold serial dilution per radioisotope. A pre-warmed 96-well V-bottom plate (Corning 3894; Corning, Corning, Mass.) containing 25 μL of 4× final concentration of test compound was inoculated with 65 μL of mid-log phase bacteria (OD600 of 0.420). Both positive and negative control wells received 25 μL untreated DM and 65 μL of inoculum at the same time. After one minute, 10 μL of radiolabeled precursor (10× final concentration in DM) was added to samples and positive control wells. Final isotope concentrations for assay of [3H]-lysine (protein), [3H]-thymidine (DNA), and [3H]-uridine (RNA) were 10 μCi/mL, 2 μCi/mL, and 2 μCi/mL respectively. […] After termination, 10 μL of 10× radiolabeled precursor was added to negative control wells. The negative control consisted of adding radiolabeled precursors after termination of the bacterial incubation in order to represent background measurement of the isotope. Plates were sealed with plate tape (Thermo Fischer Scientific, Waltham, Mass.) and shaken at 250 rpm for one hour at room temperature. Aliquots of 125 μL were transferred from the 96-well V-bottom plates to 96-well filter plates (Merck Millipore, Billerica, Mass.). To bind macromolecules, the samples were passed through the filter membrane (0.45 μM hydrophilic Durapore PVDF membrane) with a vacuum manifold, then the filter was washed with 4×200 μL 10% TCA and 1×150 μL of 95% ethanol, and dried overnight in vacuum at room temperature. 25 μL Ultima Gold scintillation fluid (Perkin Elmer, Waltham, Mass.) was added to each well and DPM was quantified using a MicroBeta^2-2450 (Perkin Elmer, Waltham, Mass.) scintillation counter. The percent incorporation was determined by subtracting each well by the average negative background and dividing by the average positive incorporation×100. Error bars represent SEM between replicates. The assay was run twice with similar results.

E. coli MB4902 (lpxC) = assay: microbe, parasite or virus in culture; type: cell-based; details: Escherichia coli, read-out: MIC MB4902 (lpxC)
Method: (§1) Bacterial strains. Strains with ATCC designations were either obtained directly from the American Type Culture Collection (Manassas, Va.) or were kindly provided by the University of Washington Clinical Microbiology laboratory. Escherichia coli permeability mutants (properties shown in Table 1) were provided as a gift from Dr. Katherine Young at Merck (Rahway, N.J.).
(§2) Susceptibility testing: Minimum inhibitory concentration (MIC) determinations were performed in triplicate in 96-well round bottom microtiter plates (Corning, Corning N.Y.) as described by the Clinical and Laboratory Standards Institute (CLSI). Serial two-fold dilutions of compounds were added to plates in 50 μL volumes. An additional 50 μL of media containing bacterial cells (1×10^6 CFUs/mL) was then added to each well. Maximum DMSO concentrations were 0.5%. Plates were incubated at 37° C. for at least 18 h before reading the susceptibility result by optical absorbance (OD600) using a BioTek ELx800. The lowest concentration causing ≥90% growth inhibition compared to the untreated control was recorded as the MIC (and also corresponded to the visual MIC). MICs were measured at least twice and the higher value (if different) was recorded herein.

E. coli MB5747 (tolC) = assay: microbe, parasite or virus in culture; type: cell-based; details: Escherichia coli, read-out: MIC MB5747 (tolC)
Method: as §1, §2

[3] = system: E. coli MB5746 (lpxC, tolC); assay: microbe, parasite or virus in culture; type: cell-based; details: Escherichia coli, read-out: MIC MB5746 (lpxC, tolC)
Method: as §1, §2

S. aureus (ATCC 29213) [4] = type: cell-based, Staphylococcus aureus; details: 8× the MIC; for Resistance frequency (Expt. 1) / Resistance frequency (Expt. 2): 72 h; for Resistance frequency (average or greater #): two independent experiments
Method: Resistance frequency rates determination: The spontaneous resistance frequency rates to test compounds was determined according to published methods. Agar selection plates were made by adding compound from DMSO stocks into molten Mueller Hinton agar in a 55° C. water bath. […] The final DMSO concentration was <0.1% per plate. Plates were dried in a sterile hood for 30 minutes prior to overnight storage at 4° C., and pre-warmed in the 37° C. incubator for 1 hour prior to assay.
A fresh overnight culture was diluted 1:50 in MHB and grown at 37° C. with shaking (150 rpm) until reaching an OD600 of 0.4 correlating to ˜2×10^9 CFUs/mL. Approximately 3 mL for a total of 6*10^9 CFUs were distributed onto 4 plates for each compound. Plates were incubated at 37° C. for 72 h prior to counting of colonies. The starting inoculum was also serially diluted and plated to quantify initial bacterial load. The resistance frequency was determined as the number of compound-resistant colonies divided by the total colonies plated.
Resistance frequency rates: The propensity for S. aureus to develop resistance to MetRS inhibitors was also studied (Table 6).

[5] = system: E. coli MB4827 (wild-type); assay: MIC against permeability strains of E. coli; type: cell-based; details: Escherichia coli, read-out: MIC MB4827 (wild-type)
Method: as §1, §2

T. cruzi = T. cruzi growth inhibition; type: cell-based, Trypanosoma cruzi; details: read-out: (E) T. cruzi EC50

Structure (SMILES)	MIC [1] [µg/mL]	Incorporation of 3H-Lysine (protein synthesis) (S. aureus (ATCC 29213) [2])	MIC (E. coli MB4902 (lpxC)) [µg/mL]	MIC (E. coli MB5747 (tolC)) [µg/mL]	MIC [3] [µg/mL]	Resistance frequency (Expt. 1) (S. aureus (ATCC 29213) [4])	Resistance frequency (Expt. 2) (S. aureus (ATCC 29213) [4])	MIC [5] [µg/mL]	EC50 (T. cruzi; Trypanosoma cruzi) [nM]	EC50 (T. cruzi)	Resistance frequency (average or greater #) (S. aureus (ATCC 29213) [4])
Fc1ccc2nc(NCCCNCc3cc(Cl)cc(Cl)c3)[nH]c2n1 [Compound 1614, [(3,5-dichlorophenyl)methyl][3-({5-fluoro-3H-imidazo[4,5-b]pyridin-2-yl}amino)propyl]amine]	5 (≈ 13.6 µM)	–	–	–	–	–	–	–	–	–	–
Fc1ccc2nc(NCCCN[C@@H]3CCNc4c(Cl)cc(Cl)cc43)[nH]c2n1 [Compound 1717, (4R)-6,8-dichloro—N-[3-({5-fluoro-3H-imidazo[4,5-b]pyridin-2-yl}amino)propyl]-1,2,3,4-tetrahydroquinolin-4-amine, reference compound]	0.156 (≈ 0.381 µM)	profoundly inhibited	> 20	> 20	> 20	2.89 × 10^−9	5.43 × 10^−9	> 20	–	–	–
CCn1c(Cc2ccc(Cl)cc2Cl)cn(Cc2nc3nc(F)ccc3[nH]2)c1=O [Compound 2062, 4-[(2,4-dichlorophenyl)methyl]-3-ethyl-1-({5-fluoro-1H-imidazo[4,5-b]pyridin-2-yl}methyl)-2,3-dihydro-1H-imidazol-2-one]	–	–	–	–	–	–	–	–	85.2	98.9 nM and 90.8 nM	–
CCn1c(Cc2ccc(OC)cc2Cl)cn(Cc2nc3nc(Cl)ccc3[nH]2)c1=O [Compound 2093, 1-({5-chloro-1H-imidazo[4,5-b]pyridin-2-yl}methyl)-4-[(2-chloro-4-methoxyphenyl)methyl]-3-ethyl-2,3-dihydro-1H-imidazol-2-one]	0.313 (≈ 0.724 µM)	profoundly inhibited	> 20	> 20	> 20	1.60 × 10^−8	2.58 × 10^−8	> 20	8.28	5.81 nM	2.10 × 10^−8
CCn1c(Cc2ccc(OC)cc2Cl)cn(Cc2nc3nc(F)ccc3[nH]2)c1=O [Compound 2114, 4-[(2-chloro-4-methoxyphenyl)methyl]-3-ethyl-1-({5-fluoro-1H-imidazo[4,5-b]pyridin-2-yl}methyl)-2,3-dihydro-1H-imidazol-2-one]	–	–	–	–	–	–	–	–	25.9	23.2 nM	–
COc1cc(Cl)c(-c2cccc3nc(Cc4nc5nc(Cl)ccc5[nH]4)cn23)cc1OC [Compound 2144, 2-({5-chloro-1H-imidazo[4,5-b]pyridin-2-yl}methyl)-5-(2-chloro-4,5-dimethoxyphenyl)imidazo[1,2-a]pyridine]	0.039 (≈ 0.0858 µM)	profoundly inhibited	> 20	> 20	> 20	3.15 × 10^−9	2.45 × 10^−8	> 20	13.5	7.79 nM	1.38 × 10^−8
CC(=O)NC[C@H]1CN(c2ccc(N3CCOCC3)c(F)c2)C(=O)O1 [LNZ, linezolid]	2.5 (≈ 7.41 µM)	–	–	–	–	–	–	–	–	–	–
